The target in data set [1] is T1, neutrophil elastase (Homo sapiens (Human), UniProt P08246). Briefly: Neutrophil elastase inhibitory activity in human plasma. The class given is biochemical. Conditions: zymosan-stimulated human plasma, substrate MeOSuc-Ala-Ala-Pro-Val-AMC. As for the experimental part:
Assay for the Determination of Neutrophil Elastase Inhibitory Activity in Human Plasma
Citrated blood from human healthy donors is mixed with zymosan suspension and incubated at room temperature. This leads to the stimulation of neutrophils and the release of neutrophil elastase into the plasma. The stimulated blood is centrifuged to generate the neutrophil elastase enriched plasma.
Preparation of Zymosan Working Solution:
• A single 45 ml blood sample is taken into a 50 ml tube containing citrate (3.13%, 5 mL) and the tube is gently inverted 4 times. • Immediately after blood sampling, zymosan working solution (5 mL) is added. • After the addition of zymosan working solution, the tubes are capped, mixed gently and incubated at 22° C. for 15 min on a shaker at 20 rpm. • Make 10 ml aliquots after the incubation time. • Centrifuge the 15 ml tubes at 800 g for 15 min at 4° C. in a Jouan centrifuge. • Harvest the plasma and make 1-5 ml aliquots. • Store the plasma at −80° C.
Various concentrations of the neutrophil elastase inhibitor are incubated with plasma. Subsequently, the enzyme activity is measured using the fluorogenic substrate MeOSuc-Ala-Ala-Pro-Val-AMC (Bachem Cat. No. I-1270, substrate concentration: 250 μM, pH 7.5, 25 mM TRIS buffer, 250 mM NaCl) in analogous fashion as described for the human neutrophil assay. A dose response curve is generated to calculate the EC50 of the inhibitor. The analysis of the data is performed by the calculation of the percentage of fluorescence in the presence of the test compound compared to the fluorescence of the vehicle control after subtracting the background fluorescence: An inhibitor of the neutrophil elastase enzyme will give values between 100% control (no inhibition) and 0% control (complete inhibition).
Target sequence in this assay (P08246 30-267): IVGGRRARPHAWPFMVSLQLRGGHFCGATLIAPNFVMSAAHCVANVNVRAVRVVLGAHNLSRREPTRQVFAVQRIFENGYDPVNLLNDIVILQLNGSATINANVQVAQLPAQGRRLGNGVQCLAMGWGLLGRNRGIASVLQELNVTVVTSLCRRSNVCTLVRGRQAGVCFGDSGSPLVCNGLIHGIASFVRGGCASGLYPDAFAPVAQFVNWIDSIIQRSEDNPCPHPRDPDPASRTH

Data set [2] concerns the target T1, neutrophil elastase. Briefly: Human Neutrophil Elastase Assay. The class given is biochemical. The following applies: substrate MeOSuc-Ala-Ala-Pro-Val-AMC.
Target sequence in this assay (P08246 30-247): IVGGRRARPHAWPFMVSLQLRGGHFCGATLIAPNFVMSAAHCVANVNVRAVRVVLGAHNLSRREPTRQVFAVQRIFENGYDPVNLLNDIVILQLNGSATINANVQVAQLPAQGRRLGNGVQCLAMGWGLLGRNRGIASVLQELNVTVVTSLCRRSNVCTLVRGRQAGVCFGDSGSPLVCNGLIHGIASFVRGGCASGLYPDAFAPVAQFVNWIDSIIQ
A short description of data set [3]: Drug transport across human Caco-2 cells. The class given is in vitro ADME. The following applies: human, Caco-2, pH 7.2, 37° C. The text has this: Assay for Determination of Drug Transport Across Human Caco-2 Cells
The assay provides information on the potential of a compound to pass the cell membrane, on the extent of oral absorption as well as on whether the compound is actively transported by uptake and/or efflux transporters. For the measurement of permeability across polarized, confluent human cancer colon carcinoma cells 2 (Caco-2) cell monolayers grown on permeable filter supports are used as the in vitro absorption model.
Apparent permeability coefficients (PE) of the compounds across the Caco-2 monolayers are measured (pH 7.2, 37° C.) in apical-to-basal (AB) (absorptive) and basal-to-apical (BA) (secretory) transport direction. AB permeability (PEAB) represents drug absorption from the intestine into the blood and BA permeability (PEBA) drug secretion from the blood back into the intestine via both passive permeability as well as active transport mechanisms mediated by efflux and uptake transporters that are expressed on the Caco-2 cells. The compounds are assigned to permeability/absorption classes by comparison of the AB permeabilities with the AB permeabilities of reference compounds with known in vitro permeability and oral absorption in the human. Identical or similar permeabilities in both transport directions indicate passive permeation, vectorial permeability points to additional active transport mechanisms. […] Active transport is concentration-dependently saturable.
Caco-2 cells (1-2*10^5 cells/cm^2 area) are seeded on filter inserts (Costar transwell polycarbonate or PET filters, 0.4 μm pore size) and cultured (DMEM) for 10 to 25 days. Compounds are dissolved in appropriate solvent (like DMSO, 1-20 mM stock solutions). Stock solutions are diluted with HTP-4 buffer (128.13 mM NaCl, 5.36 mM KCl, 1 mM MgSO4, 1.8 mM CaCl2, 4.17 mM NaHCO3, 1.19 mM Na2HPO4x7H2O, 0.41 mM NaH2PO4xH2O, 15 mM HEPES, 20 mM glucose, pH 7.2) to prepare the transport solutions (typically 10 μM compound, final DMSO<=0.5%). The transport solution (TL) is applied to the apical or basolateral donor side for measuring A-B or B-A permeability (3 filter replicates), respectively. The receiver side contains HTP-4 buffer supplemented with 2% BSA. Samples are collected at the start and end of experiment from the donor and at various time intervals for up to 2 hours also from the receiver side for concentration measurement by LC-MS/MS or scintillation counting. Sampled receiver volumes are replaced with fresh receiver solution.
The apparent permeability coefficients (PEAB and PEBA) of selected compounds in the Caco-2 drug transport assay described above are listed in Table 5.

The nature of data set [4]: Aqueous solubility. The data set is classed as physicochemical. Conditions: McIlvaine buffer with 2.5% DMSO, aqueous buffer, kinetic from dmso stock, McIlvaine buffer pH 6.8, 2.5% DMSO. As for the experimental part: Assay for Determination of Aqueous Solubility
Starting from a 10 mM DMSO stock solution, aliquots are diluted with acetonitrile/water (1/1) and McIlvaine buffer pH 6.8, respectively. After 24 h of shaking, the solutions or suspensions are filtered and analyzed by LC-UV. The amount dissolved in buffer is compared to the amount dissolved in the acetonitrile/water (1/1) solution. Solubility is measured from 0.001 to 0.125 mg/ml at a DMSO concentration of 2.5%. If more than 90% of the compound is dissolved in buffer, the value is marked with “>”.

Data set [5] can be described thus: Metabolic stability with human liver microsomes. The class given is in vitro ADME. The following applies: pH 7.6; pooled human liver microsomes, 1 μM compound, 37° C.; read-out: t1/2 INVITRO. As for the experimental part:
Assay for the Determination of Metabolic Stability with Human Liver Microsomes
The metabolic degradation of the test compound is assayed at 37° C. with pooled human liver microsomes. The final incubation volume of 100 μl per time point contains TRIS buffer pH 7.6 (0.1 M), magnesium chloride (5 mM), microsomal protein (1 mg/ml) and the test compound at a final concentration of 1 μM. Following a short preincubation period at 37° C., the reactions are initiated by addition of beta-nicotinamide adenine dinucleotide phosphate, reduced form (NADPH, 1 mM) and terminated by transferring an aliquot into acetonitrile after different time points. Additionally, the NADPH-independent degradation is monitored in incubations without NADPH, terminated at the last time point. The [%] remaining test compound after NADPH independent incubation is reflected by the parameter c(control) (metabolic stability). The quenched incubations are pelleted by centrifugation (10,000 g, 5 min) An aliquot of the supernatant is assayed by LC-MS/MS for the amount of parent compound.
The half-life (t1/2 INVITRO) is determined by the slope of the semilogarithmic plot of the concentration-time profile. The intrinsic clearance (CL_[…]) is calculated by considering the amount of protein in the incubation: CL_[…][μl/min/mg protein]=(ln 2/(half-life[min]*protein content[mg/ml]))*1,000.
The half-life (t1/2 INVITRO) values of selected compounds in the metabolic stability assay human liver microsomes described above are listed in Table 3.
On the technique in general: Liver microsomes are vesicles of endoplasmic reticulum, rich in cytochrome P450 enzymes.

Converted amounts (≈) assume the structure as drawn.

13 compounds from patent publication US9290457B2, “Substituted dihydropyrimidinones and their use as inhibitors of neutrophil elastase activity” (Boehringer Ingelheim International GmbH, priority 2014, dated 2016) can be followed below.

A word on the EC50: it is the midpoint of the concentration-response curve. Low readings indicate a more potent agent, high ones a less potent agent. Usually IC50 stands for the concentration at which inhibition is half-maximal. High values mean lower potency, low ones higher potency. What is called solubility is how much of the substance goes into solution per volume. In turn, `CC(=O)C1=C(C)N(c2cccc(C(F)(F)F)c2)C(=O)N(C)C1c1ccc(C#N)cc1-c1nnc(C)o1` (stereo not drawn) [Example 8, 4-[5-Acetyl-3,6-dimethyl-2-oxo-1-(3-trifluoromethyl-phenyl)-1,2,3,4-tetrahydro-pyrimidin-4-yl]-3-(5-methyl-[1,3,4]oxadiazol-2-yl)-benzonitrile] showed an EC50 in data set [1] of 6 nM. Further, the IC50 in data set [2] is under 1 nM. The Papp A→B at 10 μM in data set [3] (apical-to-basal, read-out: PEAB) stood at 77 ×10⁻⁶ cm/s. The Papp B→A at 10 μM in data set [3] (basal-to-apical, read-out: PEBA) was found to be 63 ×10⁻⁶ cm/s. The solubility at 24 h in data set [4] came to 30 µg/mL (≈ 60.5 µM). In addition, the half-life at 1 μM in data set [5] is over 130 min.
In data set [2], `CCOC(=O)C1=C(C)N(c2cccc(C(F)(F)F)c2)C(=O)N(C)C1c1ccc(C#N)cc1-c1ccco1` (stereo not drawn) [Example 14, 4-(4-Cyano-2-furan-2-yl-phenyl)-3,6-dimethyl-2-oxo-1-(3-trifluoromethyl-phenyl)-1,2,3,4-tetrahydro-pyrimidine-5-carboxylic acid ethyl ester] gave an IC50 of 3.7 nM.
Still for that read-out and setting: the figure for `CCOC(=O)C1=C(C)N(c2cccc(C(F)(F)F)c2)C(=O)N(C)C1c1ccc(C#N)cc1-c1ccoc1` (stereo not drawn) [Example 14.1] is 3.2 nM; for `CCOC(=O)C1=C(C)N(c2cccc(C(F)(F)F)c2)C(=O)N(C)C1c1ccc(C#N)cc1-c1cn[nH]c1` (stereo not drawn) [Example 14.2] it is 1.9 nM; for `CCOC(=O)C1=C(C)N(c2cccc(C(F)(F)F)c2)C(=O)N(C)C1c1ccc(C#N)cc1-c1cnoc1` (stereo not drawn) [Example 14.3] it is under 1 nM.
Still for that read-out and setting: the result for `CCOC(=O)C1=C(C)N(c2cccc(C(F)(F)F)c2)C(=O)N(C)C1c1ccc(C#N)cc1C1=COCC1` (stereo not drawn) [Example 14.4] reads 1.9 nM.
Same read-out and setting: the figure for `CCOC(=O)C1=C(C)N(c2cccc(C(F)(F)F)c2)C(=O)N(C)C1c1ccc(C#N)cc1-c1cnn(C)c1` (stereo not drawn) [Example 14.5] is under 1 nM.
`CCOC(=O)C1=C(C)N(c2cccc(C(F)(F)F)c2)C(=O)N(C)C1c1ccc(C#N)cc1-c1ccnn1C` (stereo not drawn) [Example 14.6] gave an IC50 in data set [2] of 3.1 nM.
The same measure, in the same setting: the figure for `CCOC(=O)C1=C(C)N(c2cccc(C(F)(F)F)c2)C(=O)N(C)C1c1ccc(C#N)cc1-c1ccn(C)n1` (stereo not drawn) [Example 14.7] is 2.4 nM; for `CCOC(=O)C1=C(C)N(c2cccc(C(F)(F)F)c2)C(=O)N(C)C1c1ccc(C#N)cc1-c1ccn(C)c(=O)c1` (stereo not drawn) [Example 14.9] it is under 1 nM; for `CCOC(=O)C1=C(C)N(c2cccc(C(F)(F)F)c2)C(=O)N(C)C1c1ccc(C#N)cc1C1=CCNCC1` (stereo not drawn) [Example 15, 4-[4-Cyano-2-(1,2,3,6-tetrahydro-pyridin-4-yl)-phenyl]-3,6-dimethyl-2-oxo-1-(3-trifluoromethyl-phenyl)-1,2,3,4-tetrahydro-pyrimidine-5-carboxylic acid ethyl ester] it is 3 nM.
The same measure, in the same setting: the figure for `COC(=O)c1cc(C#N)ccc1C1C(C(C)=O)=C(C)N(c2cccc(C(F)(F)F)c2)C(=O)N1C` (stereo not drawn) [Intermediate 5, 2-[5-Acetyl-3,6-dimethyl-2-oxo-1-(3-trifluoromethyl-phenyl)-1,2,3,4-tetrahydro-pyrimidin-4-yl]-5-cyano-benzoic acid methyl ester] is under 1 nM; for `CC(=O)C1=C(C)N(c2cccc(C(F)(F)F)c2)C(=O)N(C)C1c1ccc(C#N)cc1C(=O)O` (stereo not drawn) [Intermediate 6, 2-[5-Acetyl-3,6-dimethyl-2-oxo-1-(3-trifluoromethyl-phenyl)-1,2,3,4-tetrahydro-pyrimidin-4-yl]-5-cyano-benzoic acid] it is 3.93 nM.
